Test results from patent US4672066A, “Derivatives of 4-acetyl-3-hydroxy-2-alkyl-phenoxycarboxylic acids” (Hoffmann-La Roche Inc., priority 1985, dated 1987).
Where two headings read alike, the source gives them in different places.

How the values were obtained:
PAF [1] = molecular target: T1, PAF (Canis lupus familiaris, UniProt A0A8I3NSH0); assay: PAF Radioreceptor Binding Assay; conditions: dog platelets, 3H-PAF
T1 construct: followed by 2×10^7 dog platelets; from tissue; host or cells: washed platelets from citrate-treated dog blood
T1 sequence (A0A8I3NSH0 1-343): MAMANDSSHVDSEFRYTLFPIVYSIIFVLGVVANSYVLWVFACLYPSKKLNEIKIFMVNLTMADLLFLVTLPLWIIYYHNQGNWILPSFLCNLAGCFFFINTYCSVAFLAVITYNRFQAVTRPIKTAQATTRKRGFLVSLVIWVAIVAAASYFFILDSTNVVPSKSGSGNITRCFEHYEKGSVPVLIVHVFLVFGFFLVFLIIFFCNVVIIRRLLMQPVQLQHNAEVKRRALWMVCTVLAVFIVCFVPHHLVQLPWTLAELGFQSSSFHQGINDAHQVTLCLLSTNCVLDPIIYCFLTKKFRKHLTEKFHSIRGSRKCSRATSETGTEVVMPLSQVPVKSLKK
Protocol: Platelet rich plasma is prepared by centrifugation of citrate-treated dog blood. Acidification to pH 6.5 with 0.15 M citric acid and centrifugation for 10 minutes at 1000 xg yields a platelet pellet which is then washed by resuspension in EDTA-Phosphate Buffered Saline (PBS) and recentrifuged. The washed platelet preparation is adjusted to 2×10^7 platelets/50 μl in 0.1% BSA-PBS. […] After mixing, incubating for 10 minutes at room temperature, and centrifuging for 1 minute in a Beckman Microfuge B (8000 xg), the pellet is removed by clipping off the tip of the tube, the platelets are solubilized with 200 μl of 50% methanol, and counted in 10 ml of Aquasol. […] Results obtained with representative compounds of the present invention in this assay are summarized hereinafter in Tables I, II and III.

TXA2 synthase = molecular target: T2, TXA2 synthase (Homo sapiens, UniProt P24557); assay: Thromboxane Synthase Inhibition, In Vitro; assay type: biochemical; conditions: at 1 μM (value in parentheses), human platelet microsomes
T2 construct: microsomal fractions from human platelets as enzyme source; from tissue; host or cells: microsomal fraction of human platelets
T2 sequence (P24557 1-533): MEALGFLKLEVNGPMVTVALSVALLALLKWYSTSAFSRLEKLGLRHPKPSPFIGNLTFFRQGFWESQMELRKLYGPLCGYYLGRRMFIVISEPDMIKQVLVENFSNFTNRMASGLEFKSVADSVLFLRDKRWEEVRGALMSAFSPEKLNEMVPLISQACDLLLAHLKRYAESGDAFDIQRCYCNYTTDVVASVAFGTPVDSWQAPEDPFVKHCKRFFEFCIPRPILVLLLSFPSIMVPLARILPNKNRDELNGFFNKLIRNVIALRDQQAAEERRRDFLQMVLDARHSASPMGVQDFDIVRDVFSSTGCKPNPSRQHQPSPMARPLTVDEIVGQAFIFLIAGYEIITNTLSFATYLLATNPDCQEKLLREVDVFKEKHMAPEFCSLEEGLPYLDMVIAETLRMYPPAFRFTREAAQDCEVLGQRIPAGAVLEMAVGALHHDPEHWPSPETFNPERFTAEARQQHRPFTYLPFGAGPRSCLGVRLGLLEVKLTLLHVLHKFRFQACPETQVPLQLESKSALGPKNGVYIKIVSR
Protocol: TXA2 synthase activity is measured by following the conversion of ^14 C-prostaglandin endoperoxide (PGH2) to ^14 C-thromboxane A2 (TXA2) using microsomal fractions from human platelets as enzyme source. In the aqueous incubation medium, the TXA2 decomposes rapidly into TXB2. The amount of TXA2 synthase is adjusted so that under the conditions of the assay approximately 80-90% of the substrate, PGH2, is converted to product in control tubes. To prepare ^14 C-PGH2, ^14 C-AA (50-60 mCi/mmole; Rose Chem.) is incubated with sheep seminal vesicular gland microsomes for 1.5 minutes at 37° C. and then the ^14 C-PGH2 is extracted with diethylether, purified on columns of Sephadex LH-20 or silicic acid, and stored in acetone at -70° C. Incubations are done as follows. Sufficient ^14 C-PGH2 yield a final substrate concentration of 10 μM (~30,000 cpm) is added to the incubation tubes and then the acetone is removed under nitrogen. […] The tubes are incubated at 22° C. for 2 minutes, the reaction is stopped and then the radioactive products and the unconverted PGH2 are extracted and analyzed by thin layer chromatography. […] The amount of ^14 C-PGH2 converted to products was used as a measure of TXA2 synthase activity. Inhibitors were tested initially at a final concentration of 100 μM. Results obtained with representative compounds of the present invention in this assay are summarized hereafter in Table I, II and III.

SRS-A = assay: Guinea Pig Ileum, In Vitro (SRS-A antagonism)
Protocol: The guinea pig ileum bioassay system has been described by Orange and Austen, Adv. Immunol. 10: 104-144 ([…]). A 1.5 cm segment is removed from animals weighting 300-400 g. and suspended in an organ bath containing 10 ml. of Tyrodes solution with 10^-6 M atropine sulfate and 10^-6 M pyrilamine maleate. The bath is maintained at 37° C. and aerated with a mixture of 95% oxygen and 5% carbon dioxide. The SRS-A utilized in this screen is obtained by challenging chopped lung fragments from actively sensitized guinea pigs with egg albumin, in vitro. A dose-response curve to SRS-A challenge is established for the ileum. The dose of SRS-A which gives 50% of the maximal contraction (EC50) is then used for subsequent challenge. The drug concentration which inhibits, by 50%, the SRS-A induced constriction of the guinea pig ileum is determined.

leukotriene E4 (LTE4) = assay: LTE4-Induced Guinea Pig Bronchoconstriction Test; assay type: in vivo; conditions: 10 mg/kg i.v.
Protocol: In this test system, the ability of a drug to inhibit the bronchoconstriction induced in guinea pigs by leukotriene E4 (LTE4) is measured. A maximally constrictory dose of LTE4 is injected into guinea pigs which have been pretreated with propranolol (0.1 mg/kg, i.v.) for 5 minutes prior to challenge. The bronchoconstriction (in cm H2 O) elicited in animals pretreated intravenously for 30 seconds (at 10 mg/kg) or orally for 2 hours (at 100 mg/kg) with the test drug prior to LTE4 challenge is compared to that elicited in the absence of the test compound to determine the in vivo activity of the drug.

PAF [2] = assay: PAF-Induced Guinea Pig Bronchoconstriction Test; assay type: in vivo, guinea pig (Hartley); conditions: for inhibition of PAF-induced bronchoconstriction: 1.0 mg/kg i.v., 1 min pretreatment
Protocol: Male guinea pigs (Hartley strain) weighing 300 to 500 g are anesthetized with urethane (2 g/kg) intraperitoneally and a polyethylene cannula is inserted into the jugular vein for drug administration. Tracheal pressure is recorded from a cannula inserted in the trachea and connected to a Statham pressure transducer. Propranolol (0.1 mg/kg) is administered intravenously five minutes before challenge with synthetic PAF, the animals's skeletal muscles are then paralyzed with succinylcholine (1.2 mg/kg i.v.), and the animal is respirated using a Harvard small animal respirator operating at 40 breaths/min and 2.5 cc stroke volume. Under these conditions PAF induces a dose-dependent increase in ventilatory pressure over a dose range of 0.5 to 5 pg/kg i.v. The bronchoconstrictive effect of PAF occurs at approximately a 10-fold lower dose than that obtained with LTE. For screening purposes animals are challenged with a single dose of PAF (10 pg/kg i.v.).
Test compounds are screened by either the intravenous route (1.0 mg/kg i.v., 1 min pretreatment) or oral route (100 mg/kg p.o., 2 hour pretreatment). The peak increase in ventilatory pressure (cm H2 O) is recorded for three control animals and five drug-treated animals and the percent inhibition determined.

PAF [3] = assay: PAF-Induced Rat Skin Wheal Test; assay type: in vivo, Sprague-Dawley rats; conditions: for inhibition of PAF-induced rat skin wheal: 5 mg/kg i.v. (1 min. pretreatment)
Protocol: This test evaluates the ability of compounds to inhibit PAF-induced increases in vascular permeability in the skin of Sprague-Dawley rats. PAF induces a dose-dependent skin wheal response in this system over a dose range of 0.0001 to 1 pg/0.05 ml injection. The profound vasoactive activity of PAF is emphasized by the fact that the maximum skin wheal response is considerably greater than that obtained with LTE and an EC50 response is elicited at a 10-fold lower dose. For drug screening purposes, 5 ng of PAF is injected intradermally into anesthetized rats which had been pretreated for 30 minutes with an antihistamine (pyrilamine maleate, 50 mg/kg, i.p.) and an antiserotonin compound (methylsergide maleate, 4 mg/kg, i.p.). Immediately thereafter, the test compound is injected intravenously into the tail vein of the animal. This is followed by an intravenous injection of Evan's blue dye (0.5% in saline). Thirty minutes later the animals are sacrificed and the increase in vascular permeability induced by the migration of dye into the injection point in the skin is determined. For this purpose, rats are sacrificed by cervical dislocation, the dorsal skin is removed, the long and short axis of each […] is measured with a metric vernier caliper and the average diameter is obtained.

[4] = Table II, read-out: TXA2 Synth. Inhib. % at (1μM)
[5] = Table II, read-out: SRS Antagonism IC50
[6] = Table I, read-out: SRS-A Antagonism IC50
[7] = Table III, read-out: TXA2 Synth. Inhib. % at (1 μM)

Molecule `CCCc1c(OCCCCCC(=O)NCCSc2cccnc2)ccc(C(C)=O)c1O` has an IC50 (PAF [1]; Table II) of 1000 nM, an inhibition at 1 µM (TXA2 synthase; [4]) of 35% and an IC50 (SRS-A; [5]) of 1000 nM.
For `CCCc1c(OCC(O)COc2ccc3c(=O)cc(C(=O)O)oc3c2CCC)ccc(C(C)=O)c1O` (centres unmarked) [7-[3-(4-acetyl-3-hydroxy-2-propylphenoxy)-2-hydroxypropoxy]-4-oxo-8-propyl-4H-1-benzopyran-2-carboxylic acid, reference compound], the IC50 (SRS-A; standard SRS-A antagonist, read-out: IC50, SRS-A induced constriction of the guinea pig ileum) was 35 nM.
`CCCc1c(OCCCCCC(=O)NCCCCc2cccnc2)ccc(C(C)=O)c1O.Cl` [Example 4, 6-(4-Acetyl-3-hydroxy-2-propylphenoxy)-N-[4-(3-pyridinyl)butyl]hexanamide hydrochloride] was tested, and the IC50 (PAF [1]; Table I) was 700 nM, the IC50 (SRS-A; [6]) was 6000 nM and the “inhibition of LTE4-induced bronchoconstriction” value (leukotriene E4 (LTE4)) was 95%.
For `CCCc1c(OCCCC(=O)NCCCCc2cccnc2)ccc(C(C)=O)c1O` [Example 5, 4-(4-Acetyl-3-hydroxy-2-propylphenoxy)-N-[4-(3-pyridinyl)butyl]butanamide], the IC50 (PAF [1]; Table I) was 250 nM, the inhibition at 1 µM (TXA2 synthase; Table I, read-out: TXA2 Syn. Inhib. (1μM)) was 89% and the inhibition at 1 µM (TXA2 synthase; [7]) was 89%. For the same molecule, the IC50 (SRS-A; [6]) was 5000 nM and the “inhibition of PAF-induced bronchoconstriction” value (PAF [2]) was 64±12%.
With `CCCc1c(OCCCC#CC(=O)NCCCCc2cccnc2)ccc(C(C)=O)c1O` [Example 21, 6-(4-Acetyl-3-hydroxy-2-propylphenoxy)-N-[4-(3-pyridinyl)butyl]-2-hexynamide] the “inhibition of PAF-induced bronchoconstriction” value (PAF [2]) was 98±10% and the “inhibition of PAF-induced rat skin wheal” value (PAF [3]) was 62±3%.
For `CCCc1c(OCCCCCC(=O)OCCCc2cccnc2)ccc(C(C)=O)c1O.Cl` [Example 28, 6-(4-Acetyl-3-hydroxy-2-propylphenoxy)-hexanoic acid, 3-(3-pyridinyl)propyl ester hydrochloride], the “inhibition of LTE4-induced bronchoconstriction” value (leukotriene E4 (LTE4)) was 87%.
`CCCc1c(OCCCCCNC(=O)NCCCCc2cccnc2)ccc(C(C)=O)c1O` [Example 29, N-[5-(4-Acetyl-3-hydroxy-2-propylphenoxy)-pentyl]-N'-[4-(3-pyridinyl)butyl]urea] was tested, and the IC50 (PAF [1]; Table III) was 900 nM, the inhibition at 1 µM (TXA2 synthase; [7]) was 89% and the “inhibition of PAF-induced bronchoconstriction” value (PAF [2]) was 68±10%.
In the case of `CCCc1c(OCc2ccc(C(=O)NC(C)CCCc3cccnc3)cc2)ccc(C(C)=O)c1O` (centres unmarked) [Example 34, 4-[(4-Acetyl-3-hydroxy-2-propylphenoxy)-methyl]-N-[1-methyl-4-(3-pyridinyl)butyl]benzamide], the “inhibition of PAF-induced bronchoconstriction” value (PAF [2]) is reported as 85±8% and the “inhibition of PAF-induced rat skin wheal” value (PAF [3]) is reported as 63±4%.
With `CCCc1c(OCc2cccc(C(=O)NCCCCc3cccnc3)c2OCC)ccc(C(C)=O)c1O` [Example 36, 3-[(4-Acetyl-3-hydroxy-2-propylphenoxy)-methyl]-2-ethoxy-[4-(3-pyridinyl)butyl]benzamide] the “inhibition of PAF-induced bronchoconstriction” value (PAF [2]) was 96±2%.
In the case of `CCCc1c(OCc2ccc(C(=O)NCCCCc3cccnc3)c(OCC)c2)ccc(C(C)=O)c1O` [Example 37, 4-[(4-Acetyl-3-hydroxy-2-propylphenoxy)-methyl]-2-ethoxy-N-[4-(3-pyridinyl)butyl]benzamide], the “inhibition of PAF-induced bronchoconstriction” value (PAF [2]) is reported as 96±1%.
For `CCCCCCCCCCCCCCCCOCC(COP(=O)([O-])OCC[N+](C)(C)C)OC(C)=O` (centres unmarked) [PAF, reference compound], the “bronchoconstrictive effect of PAF, dose lower than that with LTE” value (PAF [2]; i.v., compared with LTE) was about 10 fold and the “EC50 response in skin wheal, dose lower than with LTE” value (PAF [3]; compared with LTE) was 10 fold.
`CCCc1c(OCCCCCC(=O)NCCCCc2cncnc2)ccc(C(C)=O)c1O` [drawing 31] showed an IC50 (PAF [1]; Table II) of 550 nM, an inhibition at 1 µM (TXA2 synthase; [4]) of 66% and an IC50 (SRS-A; [5]) of 10000 nM.
`CCCc1c(OCC#CCCCC(=O)NCCCCc2cccnc2)ccc(C(C)=O)c1O` [drawing 35] gave an IC50 (PAF [1]; Table II) of 600 nM and an IC50 (SRS-A; [5]) of 700 nM.
